Data published in ChEMBL document CHEMBL3621178, “Antidiabetic effect of novel benzenesulfonylureas as PPAR-γ agonists and their anticancer effect” (Bioorg Med Chem Lett, 2015).

How the values were obtained:
Assay type in all cases: functional
SNB-19 = assay: Growth inhibition of human SNB19 cells assessed as cell viability at 10 uM incubated for 48 hrs by sulforhodamine B assay; conditions: SNB-19, 48 h, read-out: Activity
OVCAR-8 = assay: Growth inhibition of human OVCAR8 cells assessed as cell viability at 10 uM incubated for 48 hrs by sulforhodamine B assay; conditions: OVCAR-8, 48 h, read-out: Activity
[1] = Growth inhibition of human HOP92 cells assessed as cell viability at 10 uM incubated for 48 hrs by sulforhodamine B assay; conditions: HOP-92, 48 h, read-out: Activity
SNB-75 = assay: Growth inhibition of human SNB75 cells assessed as cell viability at 10 uM incubated for 48 hrs by sulforhodamine B assay; conditions: SNB-75, 48 h, read-out: Activity
MDA-MB-231 = assay: Growth inhibition of human MDA-MB-231 cells assessed as cell viability at 10 uM incubated for 48 hrs by sulforhodamine B assay; conditions: MDA-MB-231, 48 h, read-out: Activity
NCI-H460 = assay: Growth inhibition of human NCI-H460 cells assessed as cell viability at 10 uM incubated for 48 hrs by sulforhodamine B assay; conditions: NCI-H460, 48 h, read-out: Activity
SR = assay: Growth inhibition of human SR cells assessed as cell viability at 10 uM incubated for 48 hrs by sulforhodamine B assay; conditions: read-out: Activity
OVCAR-5 = assay: Growth inhibition of human OVCAR5 cells assessed as cell viability at 10 uM incubated for 48 hrs by sulforhodamine B assay; conditions: OVCAR-5, 48 h, read-out: Activity
NCI-H226 = assay: Growth inhibition of human NCI-H226 cells assessed as cell viability at 10 uM incubated for 48 hrs by sulforhodamine B assay; conditions: NCI-H226, 48 h, read-out: Activity
[2] = Growth inhibition of human Hs 578T cells assessed as cell viability at 10 uM incubated for 48 hrs by sulforhodamine B assay; conditions: read-out: Activity
[3] = Growth inhibition of human RXF393 cells assessed as cell viability at 10 uM incubated for 48 hrs by sulforhodamine B assay; conditions: RXF 393, 48 h, read-out: Activity
SN12C = assay: Growth inhibition of human SN12C cells assessed as cell viability at 10 uM incubated for 48 hrs by sulforhodamine B assay; conditions: read-out: Activity
Malme-3M = assay: Growth inhibition of human MALME-3M cells assessed as cell viability at 10 uM incubated for 48 hrs by sulforhodamine B assay; conditions: read-out: Activity
M14 = assay: Growth inhibition of human M14 cells assessed as cell viability at 10 uM incubated for 48 hrs by sulforhodamine B assay; conditions: M14, 48 h, read-out: Activity
HCT-116 = assay: Growth inhibition of human HCT116 cells assessed as cell viability at 10 uM incubated for 48 hrs by sulforhodamine B assay; conditions: HCT-116, 48 h, read-out: Activity
[4] = Growth inhibition of human SF539 cells assessed as cell viability at 10 uM incubated for 48 hrs by sulforhodamine B assay; conditions: SF-539, 48 h, read-out: Activity
UACC-257 = assay: Growth inhibition of human UACC257 cells assessed as cell viability at 10 uM incubated for 48 hrs by sulforhodamine B assay; conditions: UACC-257, 48 h, read-out: Activity
CAKI-1 = assay: Growth inhibition of human CAKI-1 cells assessed as cell viability at 10 uM incubated for 48 hrs by sulforhodamine B assay; conditions: CAKI-1, 48 h, read-out: Activity
A498 = assay: Growth inhibition of human A498 cells assessed as cell viability at 10 uM incubated for 48 hrs by sulforhodamine B assay; conditions: A498, 48 h, read-out: Activity
[5] = Growth inhibition of human NCI-ADR-RES cells assessed as cell viability at 10 uM incubated for 48 hrs by sulforhodamine B assay; conditions: read-out: Activity
OVCAR-3 = assay: Growth inhibition of human OVCAR3 cells assessed as cell viability at 10 uM incubated for 48 hrs by sulforhodamine B assay; conditions: OVCAR-3, 48 h, read-out: Activity
[6] = Growth inhibition of human MOLT4 cells assessed as cell viability at 10 uM incubated for 48 hrs by sulforhodamine B assay; conditions: MOLT-4, 48 h, read-out: Activity
HOP-62 = assay: Growth inhibition of human HOP62 cells assessed as cell viability at 10 uM incubated for 48 hrs by sulforhodamine B assay; conditions: HOP-62, 48 h, read-out: Activity
MDA-MB-435 = assay: Growth inhibition of human MDA-MB-435 cells assessed as cell viability at 10 uM incubated for 48 hrs by sulforhodamine B assay; conditions: MDA-MB-435, 48 h, read-out: Activity
[7] = Growth inhibition of human RPMI8226 cells assessed as cell viability at 10 uM incubated for 48 hrs by sulforhodamine B assay; conditions: RPMI-8226, 48 h, read-out: Activity
MDA-MB-468 = assay: Growth inhibition of human MDA-MB-468 cells assessed as cell viability at 10 uM incubated for 48 hrs by sulforhodamine B assay; conditions: MDA-MB-468, 48 h, read-out: Activity
OVCAR-4 = assay: Growth inhibition of human OVCAR4 cells assessed as cell viability at 10 uM incubated for 48 hrs by sulforhodamine B assay; conditions: OVCAR-4, 48 h, read-out: Activity
HCT-15 = assay: Growth inhibition of human HCT15 cells assessed as cell viability at 10 uM incubated for 48 hrs by sulforhodamine B assay; conditions: HCT-15, 48 h, read-out: Activity
UO-31 = assay: Growth inhibition of human UO31 cells assessed as cell viability at 10 uM incubated for 48 hrs by sulforhodamine B assay; conditions: UO-31, 48 h, read-out: Activity
SF-268 = assay: Growth inhibition of human SF268 cells assessed as cell viability at 10 uM incubated for 48 hrs by sulforhodamine B assay; conditions: SF-268, 48 h, read-out: Activity
SK-MEL-5 = assay: Growth inhibition of human SK-MEL-5 cells assessed as cell viability at 10 uM incubated for 48 hrs by sulforhodamine B assay; conditions: SK-MEL-5, 48 h, read-out: Activity
U-251 = assay: Growth inhibition of human U251 cells assessed as cell viability at 10 uM incubated for 48 hrs by sulforhodamine B assay; conditions: U-251, 48 h, read-out: Activity
786-0 = assay: Growth inhibition of human 786-0 cells assessed as cell viability at 10 uM incubated for 48 hrs by sulforhodamine B assay; conditions: 786-0, 48 h, read-out: Activity
[8] = Growth inhibition of human NCI60 cells assessed as cell viability at 10 uM incubated for 48 hrs by sulforhodamine B assay; conditions: NCI60, 48 h, read-out: Activity
DU-145 = assay: Growth inhibition of human DU145 cells assessed as cell viability at 10 uM incubated for 48 hrs by sulforhodamine B assay; conditions: DU-145, 48 h, read-out: Activity

Compound	viability at 10 µM (SNB-19) [%]	viability at 10 µM (OVCAR-8) [%]	viability at 10 µM [1] [%]	viability at 10 µM (SNB-75) [%]	viability at 10 µM (MDA-MB-231) [%]	viability at 10 µM (NCI-H460) [%]	viability at 10 µM (SR) [%]	viability at 10 µM (OVCAR-5) [%]	viability at 10 µM (NCI-H226) [%]	viability at 10 µM [2] [%]	viability at 10 µM [3] [%]	viability at 10 µM (SN12C) [%]	viability at 10 µM (Malme-3M) [%]	viability at 10 µM (M14) [%]	viability at 10 µM (HCT-116) [%]	viability at 10 µM [4] [%]	viability at 10 µM (UACC-257) [%]	viability at 10 µM (CAKI-1) [%]	viability at 10 µM (A498) [%]	viability at 10 µM [5] [%]	further results
COc1ccc(C2CC(c3ccco3)=NN2c2ccc(S(=O)(=O)NC(=O)NCc3ccccc3)cc2)cc1 (stereo not given)	108	97.9	80.6	97.8	112	106	107	102	97.1	105	113	106	107	102	93.9	90	97.9	97.7	96.2	104	viability at 10 µM (OVCAR-3): 113%; viability at 10 µM [6]: 110%; viability at 10 µM (HOP-62): 103%; viability at 10 µM (MDA-MB-435): 103%; viability at 10 µM [7]: 102%; viability at 10 µM (MDA-MB-468): 101%; viability at 10 µM (OVCAR-4): 97.1%; viability at 10 µM (HCT-15): 101%; viability at 10 µM (UO-31): 99.4%; viability at 10 µM (SF-268): 103%; viability at 10 µM (SK-MEL-5): 102%; viability at 10 µM (U-251): 99.3%; viability at 10 µM (786-0): 98.6%; viability at 10 µM [8]: 101%; viability at 10 µM (DU-145): 108%
COc1ccc(NC(=O)NS(=O)(=O)c2ccc(N3N=C(c4cc5ccccc5oc4=O)CC3c3ccc(N(C)C)cc3)cc2)cc1 (stereo not given)	103	94.9	79.8	70.2	97	105	74.3	102	89.7	84.9	105	97.1	81	95.6	82.6	91.5	96.3	88.9	80.6	100	viability at 10 µM (OVCAR-3): 102%; viability at 10 µM [6]: 107%; viability at 10 µM (HOP-62): 71.8%; viability at 10 µM (MDA-MB-435): 102%; viability at 10 µM [7]: 98%; viability at 10 µM (MDA-MB-468): 104%; viability at 10 µM (OVCAR-4): 92.4%; viability at 10 µM (HCT-15): 93.1%; viability at 10 µM (UO-31): 86%; viability at 10 µM (SF-268): 98.8%; viability at 10 µM (SK-MEL-5): 98.4%; viability at 10 µM (U-251): 91.8%; viability at 10 µM (786-0): 96.9%; viability at 10 µM [8]: 95.5%; viability at 10 µM (DU-145): 111%
COc1ccc(C2CC(c3cc4ccccc4oc3=O)=NN2c2ccc(S(=O)(=O)NC(=O)Nc3ccccc3C)cc2)cc1 (stereo not given)	102	99.9	60.7	78.3	65.9	99.8	80.4	83.1	85.4	84.8	116	99.2	104	91.8	82.6	85.8	113	83.8	94.7	98.1	viability at 10 µM (OVCAR-3): 107%; viability at 10 µM [6]: 84.6%; viability at 10 µM (HOP-62): 87.3%; viability at 10 µM (MDA-MB-435): 102%; viability at 10 µM [7]: 85.8%; viability at 10 µM (MDA-MB-468): 100%; viability at 10 µM (OVCAR-4): 86.9%; viability at 10 µM (HCT-15): 95.8%; viability at 10 µM (UO-31): 68.9%; viability at 10 µM (SF-268): 101%; viability at 10 µM (SK-MEL-5): 97.2%; viability at 10 µM (U-251): 99.4%; viability at 10 µM (786-0): 94.2%; viability at 10 µM [8]: 93.4%; viability at 10 µM (DU-145): 111%
